Data taken from patent US12370212B2, “Intradialytic use of sodium thiosulfate” (Hope Medical Enterprises, Inc., priority 2017, dated 2025).
Like-named read-outs stand apart in the source and are kept apart here.

Legend:
[1] = 60 mg sample, 2 mL of 0.1 N hydrochloric acid, 80° C., approximately 24 hours
Experimental: (§1) Concentration of thiosulfate in samples was assayed by ion chromatography. The ion chromatograph was equipped with an electrochemical conductivity detector and a Dionex IonPacAS12A analytical column. The sodium thiosulfate content in the samples tested was calculated against an external sodium thiosulfate standard. USP Sodium Thiosulfate Reference Standard (Item Number 1615107) was the testing standard (United States Pharmacopeia. Rockville, Maryland).

[2] = during the first hour of hemodialysis; cited from earlier work
[3] = for Sulfate Concentration / Sulfide Concentration / Sulfite Concentration: degradation product, dialysate bicarbonate concentrate + sodium thiosulfate; for Measured Sodium Thiosulfate Concentration: dialysate bicarbonate concentrate, room temperature, expected 1.61 mg/mL
Experimental: as §1
Example 2 was performed to determine the stability of sodium thiosulfate in dialysate bicarbonate concentrate solution. At room temperature, 12500 mg sodium thiosulfate (50 mL of 250 mg/mL solution) was added to 7,700 mL of dialysate bicarbonate concentrate solution. The thiosulfate concentration of the dialysate bicarbonate concentrate solution was analyzed by ion chromatography 1) before addition of sodium thiosulfate; 2) 5 minutes after the addition of sodium thiosulfate; and 3) 2 hours after the addition of sodium thiosulfate.

[4] = for Thiosulfate Concentration After the Addition of Sodium Thiosulfate (Time = 60 Min): average of two samples
Experimental: as §1
Dialysate bicarbonate concentrate solution was prepared by adding 1 package of Centrisol© MB-330 Series Sodium Bicarbonate Concentrate powder (650 g) to 7.7 liters of purified water.
The hemodialysis machine mixed the bicarbonate concentrate solution and acid concentrate solution with the dilution ratio of 1 part of an acid concentrate solution, 1.72 parts of a bicarbonate concentrate solution, and 42.38 parts of purified water. The machine was primed in bypass mode (dialysate and ultrafiltration rates set at zero) using normal saline. After priming, the hemodialysis machine was run in “Therapy Mode” with the following settings: blood flow rate 300 mL/minute, dialysate flow rate 600 mL/minute, ultrafiltration rate 0 mL/minute.
An aqueous solution of sodium thiosulfate was prepared by dissolving 25 mg of sodium thiosulfate in 1 liter of purified water. […] This valve was placed in the dialysate tubing approximately eight inches upstream of the dialyzer (pre-filter). Two sampling ports were placed four inches upstream (pre-dialyzer sampling port) and ten inches downstream (post-dialyzer sampling port) from the dialyzer to collect samples of dialysate for […] assay by ion chromatography.
The infusion pump infused the sodium thiosulfate solution into the tubing through the valve at a rate of 250 mL/hour (4.16 mL/minute).
Normal saline flowed into the dialyzer at a rate of 300 mL/minute from the Arterial line and exited the dialyzer through the Venous line. Samples of saline were collected from the venous side of the dialyzer.

[5] = material safety data sheet; cited from earlier work
[6] = mixed dialysate exiting hemodialysis machine; expected 0.0608 mg/L
Experimental: as §1
The machine was primed in bypass mode (dialysate and ultrafiltration rates set at zero) using normal saline.

For O=S(O)(O)=S [Sodium Thiosulfate, sodium thiosulfate], the “percentage of thiosulfate degradation” value [1] is given as 28.6%, the “decline of concentration of thiosulfate in the plasma” value [2] is given as “over 60%” and the “Sulfate Concentration” value ([3]; after 5 minutes) is given as 4.4 µg/mL. For the same compound, the “Sulfide Concentration” value ([3]; after 5 minutes) was <2.5 µg/mL, the “Sulfite Concentration” value ([3]; after 5 minutes) was 5.9 µg/mL and the “Sulfate Concentration” value ([3]; after 2 hours) was 4.3 µg/mL. For the same compound, the “Sulfide Concentration” value ([3]; after 2 hours) was <2.5 µg/mL, the “Sulfite Concentration” value ([3]; after 2 hours) was 5.4 µg/mL and the “Measured Sodium Thiosulfate Concentration” value ([3]; after 5 minutes) was 1.65 mg/mL. For the same compound, the “Measured Sodium Thiosulfate Concentration” value ([3]; after 2 hours) was 1.65 mg/mL, the “stability in dialysate bicarbonate concentrate solution (in words)” value ([3]; over 2 hours) was “stable” and the “passage along or through dialyzer (in words)” value ([4]; added to unspiked dialysate between hemodialysis machine and dialyzer membrane) was “can either pass along or pass through a dialyzer”. The “Thiosulfate Concentration After the Addition of Sodium Thiosulfate (Time = 60 Min)” value ([4]; dialysate after dialyzer) was 2.20 µM, the “Thiosulfate Concentration After the Addition of Sodium Thiosulfate (Time = 60 Min)” value ([4]; dialysate before dialyzer) was 4.04 µM and the “Thiosulfate Concentration After the Addition of Sodium Thiosulfate (Time = 60 Min)” value ([4]; saline solution after dialyzer (venous side)) was 1.62 µM. The “behaviour on contact with acid (in words)” value [5] was “decomposes on contact with acid” and the “Thiosulfate Concentration by Assay” value [6] was 0.001824.
